Earlier results on 29 compounds are cited in the PKSmart pharmacokinetics tables (Seal et al. 2025).

A word on the MRT: it is a mean duration of stay, worked out from the concentration-time curve. In general, Vd refers to a proportionality between amount in the body and measured concentration, not a real space. The clearance is the volume of plasma or blood freed of the substance per unit of time. Broadly, the half-life is the time in which the quantity being followed falls by half. As a reminder, the fraction unbound is free concentration divided by total concentration.

This data set is described as follows: Lombardo, Berellini, Obach 2018, Drug Metab Dispos 46:1466, doi 10.1124/dmd.118.082966. Conditions: human; for MRT / Vd / clearance / half-life: in vivo, iv; for fraction unbound: plasma.

As to `Cc1ccc(Sc2ccccc2N2CCNCC2)c(C)c1`, the MRT was 101 h, the Vd is 35.3 L/kg, the clearance was 5.8 mL/min/kg and the half-life was 72 h. Moreover, the fraction unbound is 0.02.
Turning to `CSCCC(N)C(=O)NC(CCC(=O)O)C(=O)NC(Cc1cnc[nH]1)C(=O)NC(Cc1ccccc1)C(=O)NC(CCCN=C(N)N)C(=O)NC(Cc1c[nH]c2ccccc12)C(=O)NCC(=O)O` (stereo unspecified), the MRT was 0.01 h, the Vd is 0.73 L/kg, the clearance was 871 mL/min/kg and the half-life is 0.06 h.
Take `C[C@H]1COc2c(N3CCN(C)CC3)c(F)cc3c(=O)c(C(=O)O)cn1c23`: the MRT was 11 h, the Vd is 1.2 L/kg, the clearance was 1.9 mL/min/kg and the half-life was 8.8 h.
`Cc1cc2c(OCC(O)CNC(C)C)cccc2[nH]1` (stereo unspecified): the MRT is 6.21 h, the Vd is 2.17 L/kg, the clearance is 5.83 mL/min/kg and the half-life was 4.61 h. Moreover, the fraction unbound is 0.51.
On to `CCCCCCCC(=O)N[C@H](CN1CCCC1)[C@H](O)c1ccc2c(c1)OCCO2`, for which the clearance is 20.9 mL/min/kg, the half-life is 7.7 h and the fraction unbound was 0.21.
For `CCC1C(=O)N(C)c2cnc(Nc3ccc(C(=O)N[C@H]4CC[C@H](N5CCN(CC6CC6)CC5)CC4)cc3OC)nc2N1C(C)C` (stereo partly specified), the MRT was 116 h, the Vd is 80.5 L/kg, the clearance was 11.6 mL/min/kg and the half-life is 113 h.
In the case of `O=C(NCCN1CCOCC1)Nc1nc2ccc(Sc3nnc4ccc(-c5ccc(F)cc5)nn34)cc2s1`, the MRT was 8.19 h, the Vd was 4.1 L/kg, the clearance was 8.34 mL/min/kg and the half-life is 19.4 h.
With `Nc1nc(F)nc2c1ncn2[C@@H]1O[C@H](CO)[C@@H](O)[C@@H]1O`, the MRT was 12 h, the Vd is 2.2 L/kg, the clearance was 3.2 mL/min/kg and the half-life is 11 h. For the same compound, the fraction unbound was 0.76.
Regarding `CC(C)C1CCC(C(=O)NC(Cc2ccccc2)C(=O)O)CC1` (stereo unspecified), the MRT is 1.4 h, the Vd was 0.15 L/kg, the clearance is 1.8 mL/min/kg and the half-life was 1.5 h.
As to `O=C(Nc1c(Cl)cncc1Cl)c1ccc(OC(F)F)c(OCC2CC2)c1`, the fraction unbound was 0.01.
Turning to `C/C(=C\[C@H](C(C)C)N(C)C(=O)C(NC(=O)C1CCCCN1C(C)C)C(C)(C)C)C(=O)O` (stereo partly specified), the mean residence time MRT was 21.5 h, the Vd was 1.26 L/kg, the clearance is 0.97 mL/min/kg and the half-life is 17.5 h.
For the compound `Nc1nc2[nH]cnc2c(=S)[nH]1`, the MRT is 3.13 h, the Vd was 2.89 L/kg, the clearance is 15.4 mL/min/kg and the half-life was 24.4 h.
For the compound `Nc1nc(-n2cc(C(=O)O)c(=O)c3cc(F)c(N4CC(O)C4)c(Cl)c32)c(F)cc1F`, the MRT is 2.5 h, the Vd was 0.35 L/kg, the clearance was 2.33 mL/min/kg and the half-life is 2.1 h.
`CS(=O)(=O)c1cc(F)cc2c3c(n(Cc4ccc(Cl)cc4)c12)[C@@H](CC(=O)O)CC3`: the MRT was 13.7 h, the Vd is 1 L/kg, the clearance is 1.21 mL/min/kg and the half-life is 11.8 h.
For `O=C1CCC[C@@H]2[C@H]3CCC[N@+]4(O)CCC[C@@H](CN12)[C@@H]34`, the MRT is 1.33 h, the Vd was 0.61 L/kg, the clearance was 7.66 mL/min/kg and the half-life was 1.69 h.
In the case of `O=C1CCc2ccc(OCCCCN3CCN(c4cccc(Cl)c4Cl)CC3)cc2N1`, the MRT is 98 h, the Vd was 4.9 L/kg, the clearance is 0.83 mL/min/kg and the half-life is 75 h.
With `O=C(NC1CCN(CCc2c[nH]c3ccccc23)CC1)c1ccccc1`, the MRT is 4.1 h, the Vd was 4.9 L/kg, the clearance is 20 mL/min/kg and the half-life is 4.3 h. The fraction unbound was 0.15.
Regarding `O=NNc1cnccn1`, the mean residence time MRT is 0.29 h, the Vd was 0.31 L/kg, the clearance is 15.1 mL/min/kg and the half-life is 0.38 h.
`Cc1ccc(Nc2nccc(N(C)c3ccc4c(C)n(C)nc4c3)n2)cc1S(N)(=O)=O`: the MRT is 44.4 h, the Vd is 0.16 L/kg, the clearance was 0.06 mL/min/kg and the fraction unbound was 0.01.
As for `Cn1c(=N)c(NC(=O)NCCN)cn1CC1=C(C(=O)O)N2C(=O)C(=NC(=O)C(NOC(C)(C)C(=O)O)c3nsc(N)n3)[C@H]2SC1` (stereo partly specified), the MRT was 2.39 h, the Vd was 0.17 L/kg, the clearance is 1.16 mL/min/kg and the half-life is 2.58 h. For the same compound, the fraction unbound was 0.81.
On to `O=C(c1ccc(F)c(F)c1Nc1ccc(I)cc1F)N1CC(O)([C@@H]2CCCCN2)C1`, for which the MRT is 96.6 h, the Vd was 15.4 L/kg, the clearance was 2.8 mL/min/kg and the half-life is 68.8 h. Further, the fraction unbound is 0.05.
As to `O=C(O)C(Cl)Cl`, the MRT is 0.6 h, the Vd is 0.19 L/kg, the clearance is 5.3 mL/min/kg and the half-life was 0.65 h.
On to `Cc1cc(O)c2c(=O)c3c(O)cc(O)c4c5c(O)cc(O)c6c(=O)c7c(O)cc(C)c8c1c2c(c34)c(c78)c65`, for which the MRT was 32 h, the Vd is 0.25 L/kg, the clearance is 0.13 mL/min/kg and the half-life is 42 h.
For `CCCCCCCC/C=C/CCCCCCCC(=O)OC[C@H]1O[C@@H](n2ccc(N)nc2=O)[C@@H](O)[C@@H]1O`, the MRT was 0.51 h, the Vd was 0.14 L/kg, the clearance was 4.53 mL/min/kg and the half-life is 0.36 h.
Consider `CC(=O)N(CC(O)CO)c1c(I)c(C(=O)NCC(O)CO)c(I)c(C(=O)NCC(O)CO)c1I` (stereo unspecified), for which the MRT was 1.3 h, the Vd is 0.16 L/kg, the clearance was 2 mL/min/kg and the half-life is 1.5 h. The fraction unbound was 1.
With `NCCCC(O)(P(=O)(O)O)P(=O)(O)O`, the MRT is 2.1 h.
As for `CC(C)(C)NC[C@H](O)COc1nsnc1N1CCOCC1`, the MRT is 3 h, the Vd is 1.5 L/kg, the clearance was 8.5 mL/min/kg and the half-life is 2.2 h.
Turning to `CNCc1ccc(-c2[nH]c3cc(F)cc4c3c2CCNC4=O)cc1`, the MRT was 12.7 h, the Vd is 3.28 L/kg, the clearance was 4.31 mL/min/kg and the half-life was 16.6 h.
On to `CCN(CC)CCN(Cc1ccc(-c2ccc(C(F)(F)F)cc2)cc1)C(=O)Cn1c(SCc2ccc(F)cc2)nc(=O)c2c1CCC2`, for which the MRT is 48.1 h, the Vd is 11.9 L/kg, the clearance was 4.11 mL/min/kg and the half-life is 40.9 h.
